Data published in PubChem BioAssay AID248 (DTP/NCI, 2004).
Where “and” joins values, the source holds several entries; their conditions need not be identical. Equal values may be shown once. Toxic doses and inconclusive results are not listed. No stated cut-off is given here; in the data, active means T/C of 150% or more; inactive means T/C below 125%.

Test system: L1210 leukemia ip in BDF1 mice, survival T/C
Experiment: NCI In Vivo Anticancer Drug Screen. Data for tumor model L1210 Leukemia (intraperitoneal) in B6D2F1 (BDF1) mice
Conditions: endpoint: mean survival time, higher = longer survival
Outline: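 Each compound was tested against a transplantable tumor grown in mice. The endpoint was survival, with treated animals benchmarked against vehicle controls as a simple ratio.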

[1] = dose: 100.0 mg/kg/injection, schedule: Q01DX009 (ip), vehicle: Klucel (hydroxypropylcellulose) (HPC)
[2] = dose: 200.0 mg/kg/injection, schedule: Q01DX009 (ip), vehicle: Klucel (hydroxypropylcellulose) (HPC)
[3] = dose: 100.0 mg/kg/injection, schedule: Q04DX003 (ip), vehicle: saline
[4] = dose: 200.0 mg/kg/injection, schedule: Q04DX003 (ip), vehicle: saline
[5] = dose: 400.0 mg/kg/injection, schedule: Q04DX003 (ip), vehicle: saline
[6] = dose: 100.0 mg/kg/injection, schedule: Q04DX003 (ip), vehicle: saline with Tween-80
[7] = dose: 200.0 mg/kg/injection, schedule: Q04DX003 (ip), vehicle: saline with Tween-80
[8] = dose: 100.0 mg/kg/injection, schedule: Q04DX003 (ip), vehicle: Klucel (hydroxypropylcellulose) (HPC)
[9] = dose: 200.0 mg/kg/injection, schedule: Q04DX003 (ip), vehicle: Klucel (hydroxypropylcellulose) (HPC)
[10] = dose: 200.0 mg/kg/injection, schedule: Q01DX001 (ip), vehicle: carboxymethylcellulose (CMC)
[11] = dose: 400.0 mg/kg/injection, schedule: Q01DX001 (ip), vehicle: carboxymethylcellulose (CMC)
[12] = dose: 50.0 mg/kg/injection, schedule: Q01DX009 (ip), vehicle: saline

Measured: T/C

CCOC(=O)c1ccc(NCCCc2c(C)nc(N)[nH]c2=O)cc1
inactive: dose: 75.0 mg/kg/injection, schedule: Q01DX001 (ip), vehicle: saline with Tween-80 92 % of control | dose: 150.0 mg/kg/injection, schedule: Q01DX001 (ip), vehicle: saline with Tween-80 87 % of control | dose: 300.0 mg/kg/injection, schedule: Q01DX001 (ip), vehicle: saline with Tween-80 90 % of control

Cc1ccc(C)c(C(O)C(=O)O)c1 (stereo not drawn)
inactive: dose: 75.0 mg/kg/injection, schedule: Q01DX001 (ip), vehicle: acetone 101 % of control | dose: 150.0 mg/kg/injection, schedule: Q01DX001 (ip), vehicle: acetone 98 % of control | dose: 300.0 mg/kg/injection, schedule: Q01DX001 (ip), vehicle: acetone 95 % of control

CN(C)/N=C\c1cccc2ccccc12
inactive: dose: 100.0 mg/kg/injection, schedule: Q04DX002 (ip), vehicle: saline with Tween-80 96 % of control | dose: 200.0 mg/kg/injection, schedule: Q04DX002 (ip), vehicle: saline with Tween-80 92 % of control | dose: 400.0 mg/kg/injection, schedule: Q04DX002 (ip), vehicle: saline with Tween-80 92 % of control

C=CCNc1ccnc(SCc2ccccc2)n1
inactive: dose: 100.0 mg/kg/injection, schedule: Q01DX009 (ip), vehicle: gum acacia 93 % of control | dose: 100.0 mg/kg/injection, schedule: Q04DX003 (ip), vehicle: gum acacia 97 % of control | dose: 200.0 mg/kg/injection, schedule: Q01DX009 (ip), vehicle: gum acacia 110 % of control | dose: 200.0 mg/kg/injection, schedule: Q04DX003 (ip), vehicle: gum acacia 97 % of control | dose: 400.0 mg/kg/injection, schedule: Q01DX009 (ip), vehicle: gum acacia 97 % of control | dose: 400.0 mg/kg/injection, schedule: Q04DX003 (ip), vehicle: gum acacia 92 % of control

COC(=O)CN(c1c(C)cc(C)c(NS(=O)(=O)c2ccccc2)c1C)S(=O)(=O)c1ccccc1
inactive: dose: 100.0 mg/kg/injection, schedule: Q01DX001 (ip), vehicle: Klucel (hydroxypropylcellulose) (HPC) 92 % of control | dose: 200.0 mg/kg/injection, schedule: Q01DX001 (ip), vehicle: Klucel (hydroxypropylcellulose) (HPC) 96 % of control | dose: 400.0 mg/kg/injection, schedule: Q01DX001 (ip), vehicle: Klucel (hydroxypropylcellulose) (HPC) 97 % of control

CCOC(=O)N/N=C/c1ccccc1O
inactive: dose: 75.0 mg/kg/injection, schedule: Q01DX001 (ip), vehicle: carboxymethylcellulose (CMC) 103 % of control | dose: 150.0 mg/kg/injection, schedule: Q01DX001 (ip), vehicle: carboxymethylcellulose (CMC) 104 % of control | dose: 300.0 mg/kg/injection, schedule: Q01DX001 (ip), vehicle: carboxymethylcellulose (CMC) 97 % of control

CC1(C)N=C(N)N=C(N)N1c1ccc(OCCCc2ccccc2)c([N+](=O)[O-])c1
inactive: [1] 103 % of control | [2] 103 % of control

CC(C)=CCC(C#N)(CCN1CCCCC1)c1cccc2ccccc12 (stereo not drawn)
inactive: dose: 12.5 mg/kg/injection, schedule: Q04DX003 (ip), vehicle: Klucel (hydroxypropylcellulose) (HPC) 99 % of control | dose: 25.0 mg/kg/injection, schedule: Q04DX003 (ip), vehicle: Klucel (hydroxypropylcellulose) (HPC) 103 % of control | dose: 50.0 mg/kg/injection, schedule: Q04DX003 (ip), vehicle: Klucel (hydroxypropylcellulose) (HPC) 100 % of control

COc1cc2c(cc1OC)C13CCN4C=C5CCOC6CC(=O)N2C1C6C5CC43 (stereo not drawn)
inactive: dose: 75.0 mg/kg/injection, schedule: Q01DX001 (ip), vehicle: other 96 % of control

CC(=N\NC(N)=S)/C(=N/NC(N)=S)c1ccccc1
inactive: dose: 15.0 mg/kg/injection, schedule: Q01DX Z (ip), vehicle: carboxymethylcellulose (CMC) 107 % of control | dose: 30.0 mg/kg/injection, schedule: Q01DX Z (ip), vehicle: carboxymethylcellulose (CMC) 97 % of control | dose: 60.0 mg/kg/injection, schedule: Q01DX Z (ip), vehicle: carboxymethylcellulose (CMC) 95 % of control and 90 % of control | dose: 120.0 mg/kg/injection, schedule: Q01DX Z (ip), vehicle: carboxymethylcellulose (CMC) 93 % of control and 91 % of control | dose: 120.0 mg/kg/injection, schedule: Q01DX Z (oral), vehicle: carboxymethylcellulose (CMC) 110 % of control | dose: 240.0 mg/kg/injection, schedule: Q01DX Z (oral), vehicle: carboxymethylcellulose (CMC) 100 % of control | dose: 480.0 mg/kg/injection, schedule: Q01DX Z (ip), vehicle: carboxymethylcellulose (CMC) 88 % of control | dose: 480.0 mg/kg/injection, schedule: Q01DX Z (oral), vehicle: carboxymethylcellulose (CMC) 115 % of control | dose: 960.0 mg/kg/injection, schedule: Q01DX Z (oral), vehicle: carboxymethylcellulose (CMC) 104 % of control

CCN(CC)CCSc1ccnc2cc(Cl)ccc12
inactive: [3] 94 % of control | [4] 96 % of control | [5] 100 % of control

Nc1nc2c(c(-c3ccccc3)n1)CN(CCCC(=O)O)C2=O
inactive: dose: 100.0 mg/kg/injection, schedule: Q01DX001 (ip), vehicle: saline 103 % of control | [3] 100 % of control | dose: 200.0 mg/kg/injection, schedule: Q01DX001 (ip), vehicle: saline 105 % of control | [4] 98 % of control | dose: 400.0 mg/kg/injection, schedule: Q01DX001 (ip), vehicle: saline 97 % of control | [5] 100 % of control

CCOC(CN1C(=O)c2ccccc2C1=O)OCC
inactive: dose: 50.0 mg/kg/injection, schedule: Q01DX009 (ip), vehicle: saline with Tween-80 96 % of control | dose: 100.0 mg/kg/injection, schedule: Q01DX009 (ip), vehicle: saline with Tween-80 96 % of control | dose: 200.0 mg/kg/injection, schedule: Q01DX009 (ip), vehicle: saline with Tween-80 93 % of control

CCC(C)c1ccc(-c2ccc(OC)cc2)cc1 (stereo not drawn)
inactive: [6] 86 % of control | [7] 86 % of control

N#CCCCCCCCCCC#N
inactive: dose: 10.0 mg/kg/injection, schedule: Q04DX003 (ip), vehicle: Klucel (hydroxypropylcellulose) (HPC) 93 % of control | dose: 20.0 mg/kg/injection, schedule: Q04DX003 (ip), vehicle: Klucel (hydroxypropylcellulose) (HPC) 100 % of control | dose: 40.0 mg/kg/injection, schedule: Q04DX003 (ip), vehicle: Klucel (hydroxypropylcellulose) (HPC) 109 % of control | [1] 96 % of control

Cn1c(=O)c2[nH]c(Br)nc2n(C)c1=O
inactive: [1] 90 % of control | [8] 98 % of control | [2] 93 % of control | [9] 111 % of control | dose: 400.0 mg/kg/injection, schedule: Q04DX003 (ip), vehicle: Klucel (hydroxypropylcellulose) (HPC) 106 % of control

NNS(=O)(=O)c1ccc(N=Nc2ccccc2)cc1
inactive: [6] 90 % of control | [7] 93 % of control | dose: 400.0 mg/kg/injection, schedule: Q04DX003 (ip), vehicle: saline with Tween-80 97 % of control

NOC(=O)C1C(c2ccccc2)C1(c1ccccc1)c1ccccc1 (stereo not drawn)
inactive: dose: 100.0 mg/kg/injection, schedule: Q01DX001 (ip), vehicle: steriod suspending solution 104 % of control | dose: 200.0 mg/kg/injection, schedule: Q01DX001 (ip), vehicle: steriod suspending solution 95 % of control | dose: 400.0 mg/kg/injection, schedule: Q01DX001 (ip), vehicle: steriod suspending solution 117 % of control

CN1CCC(O)(c2ccc(F)cc2)C(C(=O)c2ccc(F)cc2)C1 (stereo not drawn)
inactive: dose: 50.0 mg/kg/injection, schedule: Q01DX001 (ip), vehicle: carboxymethylcellulose (CMC) 100 % of control | dose: 100.0 mg/kg/injection, schedule: Q01DX001 (ip), vehicle: carboxymethylcellulose (CMC) 100 % of control | [10] 94 % of control | [11] 94 % of control

CCOC(=O)CCC(NC(=O)c1ccc(N(C)C(=O)OCc2ccccc2)cc1)C(=O)OCC (stereo not drawn)
inactive: [10] 100 % of control | [11] 94 % of control

CC(=O)C(Cl)C(O)(C(F)(F)F)C(F)(F)F (stereo not drawn)
inactive: dose: 12.5 mg/kg/injection, schedule: Q01DX009 (ip), vehicle: saline 96 % of control | dose: 25.0 mg/kg/injection, schedule: Q01DX009 (ip), vehicle: saline 100 % of control | [12] 110 % of control | [6] 95 % of control | [7] 104 % of control

CCCCSP(=S)(Cc1ccccc1)SCCCC
inactive: [8] 95 % of control | [9] 93 % of control

CN=C(N)C(C)Cl (stereo not drawn)
inactive: dose: 100.0 mg/kg/injection, schedule: Q04DX002 (ip), vehicle: saline 106 % of control | dose: 200.0 mg/kg/injection, schedule: Q04DX002 (ip), vehicle: saline 103 % of control | dose: 400.0 mg/kg/injection, schedule: Q04DX002 (ip), vehicle: saline 103 % of control

O=c1cc[nH]c2cc(Cl)ccc12
inactive: [12] 102 % of control | dose: 100.0 mg/kg/injection, schedule: Q01DX009 (ip), vehicle: saline 97 % of control
